Results on two substances are retold here after US20200123208A1, “PEPTIDES AND NEMATICIDAL COMPOSITIONS” (priority 2017, published 2020).

Holding throughout (format): in vivo
Assay [1] concerns Meloidogyne incognita infective stage juveniles (J2s). Briefly: Chemosensory (chemotaxis) assay towards root exudate, M. incognita J2s. The following applies: M. incognita J2s, 100 μM uNLP, 24 h; mean+/-SEM. On the procedure: (§1) Predicted uNLPs from both M. incognita and G. pallida were synthesised by EZBiolab and dissolved into pH adjusted ddH2O to make a 5 mM stock which was aliquoted and stored at −20° C. J2s of both M. incognita and G. pallida were incubated for 24 hours in 200 μl of each peptide in a 24 well plate (SPL Lifesciences, South Korea) at a defined concentration.
A 60 mm Petri dish was divided into two segments, a positive and a negative side, with a 0.5 cm ‘dead zone’ either side of the centre point. The petri dish was filled with 15 ml of 0.25% w/v agar which was allowed to solidify. 3 ml of 0.25% w/v agar slurry in spring water (pH 7, agitated with a magnetic stirrer for several hours to give a smooth consistency) was added to the petri dish and spread evenly over the surface. Root diffusate (attractant) and water only (control) 0.25% agar plugs were embedded in the agar slurry, either side of the assay arena. Root diffusate was collected from 10 tomato plants, aged 3-6 weeks in 1 litre pots, by pouring 500 ml of ddH2O through the soil three times. Diffusate from each plant was combined, filter sterilised and stored at 4° C. for a maximum of 1 month. Root diffusate agar plugs were made by melting 1.25% agar in ddH2O, cooling to 50° C. before mixing with 4 parts of root diffusate. The agar was then allowed to solidify at room temperature. 100 uNLP pre-treated M. incognita or G. pallida J2s were added by pipette to the centre of the plate. J2s which moved out of the ‘dead zone’ after 3 hours were counted and their location (+/−) scored. The distribution of J2s were used to create a chemotaxis index for each plate, which formed one replicate, a total of 10 replicates where completed for each uNLP treatment.

Assay [2] concerns Steinernema carpocapsae infective juveniles. Briefly: S. carpocapsae host-finding assay (non-target nematode). The following applies: S. carpocapsae IJs, 100 μM, 24 h; no statistically significant impact; control 0.2315. On the procedure:
S. carpocapsae were cultured in Galleria mellonella at 23° C. Infective juveniles (IJs) were collected using a White trap in PBS. Freshly emerged IJs were used for each assay. 100 IJs were incubated for 24 hours in 100 μM of selected uNLPs, and host-finding assays performed as in Morris et al..

Assay [3] concerns mixed-stage Caenorhabditis elegans. Description: C. elegans chemotaxis assay (non-target nematode). The following applies: 100 μM, 24 h, no statistically significant impact; for chemotaxis index (Cl) towards sodium acetate: control 0.4269; for chemotaxis index (Cl) towards pyrazine: control 0.4904; for chemotaxis index (Cl) towards diacetyl: control 0.6638; for chemotaxis index (Cl) towards benzaldehyde: control 0.7026. On the procedure:
C. elegans wild-type N2 Bristol strain were obtained from the C. elegans Genomics Center and maintained on a Escherichia coli (strain OP50) lawn on nematode growth medium (NGM) agar plates (3 g/l NaCl, 17 g/l agar, 2.5 g/l peptone, 5 mg/l cholesterol, 25 mM KH2PO4 (pH 6.0), 1 mM CaCl2, 1 mM MgSO4) at 20° C.. Chemotaxis assays were performed in a 9 cm diameter Petri dish on NGM agar which was split into a positive and negative side with a central ‘dead zone’ of 1.5 cm diameter. 100 mixed-staged C. elegans were washed three times in M9 buffer and soaked in 100 μM PPN uNLP, or M9 vehicle control for 24 hours. 2 μl of 50 mM sodium acetate, 0.5% pyrazine, 0.5% benzaldehyde or 0.5% diacetyl was spotted onto the positive side, 2 μl of ddH2O was spotted onto the negative side. Pyrazine, benzaldehyde and diacetyl volatile attractants were assayed immediately whereas the water soluble sodium acetate was assayed 18 hours following addition to the plate. Assays were maintained in the dark at 20° C., and counted after 1 hour.

In assay [4] the test system is Meloidogyne incognita J2s. Briefly: Tomato invasion assay, M. incognita J2s. The following applies: 100 μM uNLP, 24 h, tomato seedlings, normalised to negative control. On the procedure: as §1
(§2) Tomato seeds were sterilised with 2.5% NaOCl for 15 minutes, washed 5 times in ddH2O and germinated on 0.5% Murashige and Skoog plates at 23° C. […] Invasion assays were performed by mixing 500 pre-treated M. incognita or G. pallida J2s with agar slurry and a single tomato seedling (2 days post germination) in a 6 well plate. Assays were left at 23° C. for 24 hours in the case of M. incognita and at 18° C. for 24 hours in the case of G. pallida under a 16 hour light and 8 hour darkness cycle. Seedlings were stained using acid fuschin [69] and the number of nematodes within the roots counted.

Assay [5] concerns Meloidogyne incognita J2s. Briefly: B. subtilis and C. reinhardtii plant protection assay, M. incognita. The following applies: tomato. The protocol:
as §2
B. subtilis were grown overnight in LB media containing ampicillin (100 μg/ml) at 37° C. with shaking, and harvested in the log phase of growth determined by measuring OD600nm. Five ml of culture at 0.5 OD was spun down and the pellet mixed with 3 ml of agar slurry and 500 J2s from either G. pallida or M. incognita. C. reinhardtii clones were grown at 23° C. with shaking, cultures in the log phase were measured at OD750 and 5 ml of culture at 0.5 OD was pelleted by centrifugation. C. reinhardtii pellets were mixed with 3 ml of agar slurry and 500 J2s from either G. pallida or M. incognita. Plant invasion assays were performed as described above.
uNLP secretion inserts, and vector pChlamy_3 were digested using Kpnl/Xbal (New England Biolabs, USA), ligated using T4 ligase (New England Biolabs, USA), and cloned into Escherichia coli One Shot® TOP10 chemically competent cells (Life Technologies, USA) following manufacturer's instructions. Ampicillin (Sigma Aldrich, USA) was used to select E. coli containing the pChlamy_3 plasmid, which was subsequently extracted using the High Pure Plasmid Isolation Kit (Roche) and sequenced (Eurofins Genomics, UK) to identify correct clones. C. reinhardtii was transformed by electroporation following manufacturer's instructions (GeneArt® Chlamydomonas Engineering Kit, Life Technologies) and individual colonies grown on TAP-Agar-Hygromycin plates (10 μg/mL) (Sigma Aldrich, USA) at 23° C. Colonies were picked and grown at 23° C. in 100 ml TAP growth media (Invitrogen, USA) with constant orbital agitation. qRT-PCR was performed to identify clones with the highest level of uNLP expression, which were then selected for downstream assays (pChlamy universal FWD: […], nlp-15b REV: CTACTAGTCGAGGCCGGTA; Mi-nlp-9f REV: GAACGGGCGGATGAAGTAG).
uNLP secretion inserts, and vector pBE-S were digested using Xbal/Mlul (New England Biolabs, USA), ligated using T4 ligase (New England Biolabs, USA), and cloned into E. coli One Shot® TOP10 chemically competent cells (Life Technologies, USA) following manufacturer's instructions. […]

Assay [6] deals with Meloidogyne incognita J2s. Briefly: Serotonin-induced stylet thrusting assay, M. incognita J2s. The following applies: 100 μM uNLP, 24 h, 5 mM serotonin. The protocol: as §1
Stylet thrusting assays where performed by incubating 100 M. incognita or G. pallida J2s for 15 minute in 5 mM or 2 mM serotonin (Sigma Aldrich, USA), respectively. J2s were placed on a glass slide and stylet thrusts were counted for randomly selected J2s, for 1 minute each. Counting took place for a maximum of 15 minutes. Longer incubations yielded inconsistent results. At least 30 J2s were counted for each neuropeptide treatment.

Turning to “GGGRYFIRPFADQ [Mi-NLP-9f, predicted unamidated NLP of Meloidogyne incognita]”, the “chemotaxis index (Cl) towards root exudate” value in assay [1] is reported as −0.26+/−0.224. Moreover, the “insect host-finding index (Cl) towards Galleria mellonella” value in assay [2] was 0.2462+/−0.070. For the same substance, in assay [3], the “chemotaxis index (Cl) towards sodium acetate” value is reported as 0.5261+/−0.064, the “chemotaxis index (Cl) towards pyrazine” value is recorded as 0.4599+/−0.087, the “chemotaxis index (Cl) towards diacetyl” value is reported as 0.6+/−0.092 and the “chemotaxis index (Cl) towards benzaldehyde” value is given as 0.7463+/−0.047. The “host invasion compared to controls” value in assay [4] is 28.22%+/−5.253. Moreover, in assay [5] (C. reinhardtii cultures secreting the uNLP), the “M. incognita invasion relative to untransformed C. reinhardtii” value was found to be 10.32%+/−10.32.
As for “MVSWQPV [Mi-NLP-40, predicted unamidated NLP of Meloidogyne incognita]”, the “rate of serotonergic-induced stylet thrusting compared with controls” value in assay [6] is 210%+/−21.35. Also, the “chemotaxis index (Cl) towards root exudate” value in assay [1] was −0.04+/−0.04726. Also, the “insect host-finding index (Cl) towards Galleria mellonella” value in assay [2] is 0.3057+/−0.082. In assay [3], the “chemotaxis index (Cl) towards sodium acetate” value is 0.4820+/−0.115, the “chemotaxis index (Cl) towards pyrazine” value is 0.5018+/−0.039, the “chemotaxis index (Cl) towards diacetyl” value was 0.5858+/−0.097 and the “chemotaxis index (Cl) towards benzaldehyde” value is given as 0.6686+/−0.065. Also, the “M. incognita invasion relative to control” value in assay [5] (B. subtilis cultures secreting the uNLP) is 23.72%+/−5.448.
